Experimental data from patent publication US11590110B2, “Compositions and methods for reactivating latent immunodeficiency virus using a GSK-3 inhibitor” (priority 2017, dated 2023).

How the values were obtained:
[1] = tested on: latent HIV-1 in GALT cultures from HIV-positive donors on suppressive ART; test: Example 5: latency reversion in gut-associated lymphoid tissue (GALT) cultures, ddPCR; type: cell-based
Description: PBMCs and CD4^+ T cells from HIV-positive donors were cultured and treated in the presence of 5 μM saquinavir. For gut-associated lymphoid tissue (GALT) cells, to remove the epithelium and epithelial cells, 30 tissue biopsy tissue pieces were incubated in pre-warmed buffer containing 10 mM DTT, 5 mM EDTA, 10 mM HEPES and 5% FBS for 20 minutes at 37° C. under continuous rotation, vortexed and the supernatant aspirated. Tissue pieces were then incubated for a second time in the same pre-warmed buffer for a further 20 minutes at 37° C. under continuous rotation. The sample was again vortexed, and then rinsed for 20 minutes at 37° C. under continuous rotation with RMPI, 10 mM HEPES and 5% FBS. To then isolate lymphocytes from the lamina propria, a second, pre-warmed buffer containing RPMI, 10 mM HEPES, 7.5 µg/ml DNAse and 5% FBS was applied to the tissue pieces, and these were again incubated for 20 minutes at 37° C. under continuous rotation. […]
5 million resting CD4^+ T lymphocytes were plated and either left unstimulated (media alone plus DMSO), stimulated with anti-CD3/CD28 coated or incubated with LRAs for 48 hours. […] Subsequently, ddPCR was applied to quantify pre-amplified cDNA. […] Finally, samples were amplified on a BioRad C1000 Thermocycler and analyzed using a BioRad QX100 ddPCR Reader. […]

[2] = tested on: CD4+ T cells; test: Example 5: surface expression of activation markers CD69 and CD25, flow cytometry; type: cell-based, human; conditions: 48 hours
Description: Freshly isolated PBMCs or CD4^+ T cells were stained for viability, using the fixable viability dye Zombie violet (1:50, Biolegend) according to the manufacturer's recommendation. Surface staining was performed with the following antibodies at 1:100 dilutions: CD3-PE-Cy7, CD4-APC-Cy7, CD69-FITC, CD25-PE (all 1:100, Biolegend), and Glut-1-Ax647 (BD Bioscience, 566580) in staining buffer for 20 min on ice and cells were fixed in 1% PFA-containing PBS. All flow analysis was performed on the LSRII (BD Biosciences) using FlowJo software (v.10.4.2). Color compensations were performed using single-stained samples for each of the fluorochromes used. Data were analyzed using FlowJo software (TreeStar, San Carlos, Calif.).

O=c1sn(-c2cccc3ccccc23)c(=O)n1Cc1ccccc1 [Tideglusib, 4-benzyl-2-(naphthalen-1-yl)-1,2,4-thiadiazolidine-3,5-dione]
virus-associated mRNA in culture supernatant, median value ([1]; 1 μM, 24 hours, relative to untreated control): 20.69 fold | virus release vs untreated control ([1]; GALT cultures): over 20 fold | surface expression of the activation markers CD69 or CD25 [2]: no increase
